Experimental data: patent publication US20240115527A1, “CXCR1/CXCR2 INHIBITORS FOR USE IN TREATING MYELOFIBROSIS” (Icahn School of Medicine at Mount Sinai, priority 2020, published 2024)

Experiments:
Assay type in all cases: cell-based, human
[1] = system: co-cultures of MF MNC and stromal cells; assay: ELISA of IL-8 and VEGF in conditioned medium of co-cultures of MF MNC and splenic stromal cells
Excerpt: FIGS. 6A, 6B, 6C, 6D, and 6E illustrate that a CXCR1/CXCR2 inhibitor reverses effects of IL-8 on micro-environmental cells. […] N splenic AC=normal splenic adherent cells. nBM MNC=non-adherent bone marrow mononuclear cells. MNC=mononuclear cells. […] FIGS. 6D and 6E illustrate that addition of CXCR1/CXCR2 inhibitor Ladx decreased the levels of IL-8 (FIG. 6D) and VEGF (FIG. 6E) in conditioned medium harvested from co-cultures of MF MNC and stromal cells.

[2] = system: MF CD34+, CD41+ and CD33+ cells; assay: Proliferation and lineage differentiation of MF mononuclear cells cultured with IL-8, flow cytometry; details: ladarixin added to IL-8 culture, FIG. 4A
Procedure: To evaluate the effects of IL-8 on MF CD34^+ cells proliferation and lineage differentiation, MF mononuclear cells (MNC cells) were cultured with StemSpan™ Serum-Free Expansion Medium (SFEM) containing 20 ng/ml of stem cell factor (SCF), thrombopoietin (TPO), FL-3L and IL-3 with or without 50 ng/ml of IL-8. The cells were harvested after 3 days of incubation. The proportion of hematopoietic cells belonging to specific lineages were determined using flow cytometry.

[3] = system: normal CD34+ cells; assay: Hematopoietic colony formation by normal CD34+ cells with IL-8; details: addition of ladarixin, FIG. 5B
[4] = system: normal donor CD34+ cells; assay: Proliferation and lineage differentiation of normal donor cells cultured with IL-8, flow cytometry; details: ladarixin added to IL-8 culture, FIG. 4A
[5] = system: MF CD34+ cells; assay: Clonal assays of MF CD34+ cells; JAK2V617F allele status of picked hematopoietic colonies
Procedure: Individual hematopoietic colonies were randomly picked from clonal assays of CD34^+ cells from 6 MF cases and the JAK2V617F allele status was determined.
IL-8 alone increased the absolute numbers of JAK2V617F+ colonies, and the addition of Ladarixin reduced the numbers of JAK2V617F positive colonies stimulated by IL-8 (Tables 1-3).

[6] = MF1 CD34+ cells, ladarixin 10 μM + IL-8 10 ng
[7] = MF1 CD34+ cells, ladarixin 10 μM + IL-8 20 ng
[8] = MF1 CD34+ cells, ladarixin 10 μM + IL-8 50 ng
[9] = MF1 CD34+ cells, ladarixin 10 μM + IL-8 100 ng
[10] = MF1 CD34+ cells, ladarixin 10 μM, no IL-8
[11] = MF1 CD34+ cells, ladarixin 20 μM + IL-8 20 ng
[12] = MF1 CD34+ cells, ladarixin 20 μM, no IL-8
[13] = MF2 CD34+ cells, ladarixin 10 μM + IL-8 10 ng
[14] = MF2 CD34+ cells, ladarixin 10 μM + IL-8 20 ng
[15] = MF2 CD34+ cells, ladarixin 10 μM + IL-8 50 ng
[16] = MF2 CD34+ cells, ladarixin 10 μM + IL-8 100 ng
[17] = MF2 CD34+ cells, ladarixin 10 μM, no IL-8
[18] = MF2 CD34+ cells, ladarixin 20 μM + IL-8 20 ng
[19] = MF2 CD34+ cells, ladarixin 20 μM, no IL-8
[20] = MF3 CD34+ cells, ladarixin 10 μM + IL-8 10 ng
[21] = MF3 CD34+ cells, ladarixin 10 μM + IL-8 20 ng
[22] = MF3 CD34+ cells, ladarixin 10 μM + IL-8 50 ng
[23] = MF3 CD34+ cells, ladarixin 10 μM + IL-8 100 ng
[24] = MF3 CD34+ cells, ladarixin 10 μM, no IL-8
[25] = MF3 CD34+ cells, ladarixin 20 μM + IL-8 20 ng

## C[C@@H](C(=O)NS(C)(=O)=O)c1ccc(OS(=O)(=O)C(F)(F)F)cc1 [Ladarixin, R(-)-2-[(4′-trifluoromethanesulfonyloxy)phenyl]-N-methanesulfonyl propionamide]
[1]; FIG. 6D
  IL-8 levels in co-cultures (conditioned medium): decreased
[1]; FIG. 6E
  VEGF levels in co-cultures (conditioned medium): decreased
[2]
  effect on IL-8 induced change of percentage of MF CD34+, CD41+ and CD33+ cells: reversed the effects of IL-8
[3]
  hematopoietic colony formation by normal CD34+ cells: did not affect
[4]
  effect on IL-8 induced change of normal CD34+, CD41+ and CD33+ cell populations: reversed the effects of IL-8
[5]; [6]
  number of colonies, Heter (JAK2V617F heterozygous): 54
  number of colonies, Homo (JAK2V617F homozygous): 8
  number of colonies, WT (JAK2 wild type): 0
[5]; [7]
  number of colonies, Heter (JAK2V617F heterozygous): 56
  number of colonies, Homo (JAK2V617F homozygous): 4
  number of colonies, WT (JAK2 wild type): 4
[5]; [8]
  number of colonies, Heter (JAK2V617F heterozygous): 62
  number of colonies, Homo (JAK2V617F homozygous): 5
  number of colonies, WT (JAK2 wild type): 0
[5]; [9]
  number of colonies, Heter (JAK2V617F heterozygous): 58
  number of colonies, Homo (JAK2V617F homozygous): 8
  number of colonies, WT (JAK2 wild type): 0
[5]; [10]
  number of colonies, Heter (JAK2V617F heterozygous): 49
  number of colonies, Homo (JAK2V617F homozygous): 4
  number of colonies, WT (JAK2 wild type): 0
[5]; [11]
  number of colonies, Heter (JAK2V617F heterozygous): 49
  number of colonies, Homo (JAK2V617F homozygous): 4
  number of colonies, WT (JAK2 wild type): 9
[5]; [12]
  number of colonies, Heter (JAK2V617F heterozygous): 43
  number of colonies, Homo (JAK2V617F homozygous): 0
  number of colonies, WT (JAK2 wild type): 16
[5]; [13]
  number of colonies, Heter (JAK2V617F heterozygous): 0
  number of colonies, Homo (JAK2V617F homozygous): 0
  number of colonies, WT (JAK2 wild type): 49
[5]; [14]
  number of colonies, Heter (JAK2V617F heterozygous): 3
  number of colonies, Homo (JAK2V617F homozygous): 0
  number of colonies, WT (JAK2 wild type): 35
[5]; [15]
  number of colonies, Heter (JAK2V617F heterozygous): 0
  number of colonies, Homo (JAK2V617F homozygous): 0
  number of colonies, WT (JAK2 wild type): 44
[5]; [16]
  number of colonies, Heter (JAK2V617F heterozygous): 0
  number of colonies, Homo (JAK2V617F homozygous): 0
  number of colonies, WT (JAK2 wild type): 46
[5]; [17]
  number of colonies, Heter (JAK2V617F heterozygous): 0
  number of colonies, Homo (JAK2V617F homozygous): 0
  number of colonies, WT (JAK2 wild type): 36
[5]; [18]
  number of colonies, Heter (JAK2V617F heterozygous): 0
  number of colonies, Homo (JAK2V617F homozygous): 0
  number of colonies, WT (JAK2 wild type): 47
[5]; [19]
  number of colonies, Heter (JAK2V617F heterozygous): 0
  number of colonies, Homo (JAK2V617F homozygous): 0
  number of colonies, WT (JAK2 wild type): 44
[5]; [20]
  number of colonies, Heter (JAK2V617F heterozygous): 110
  number of colonies, Homo (JAK2V617F homozygous): 17
  number of colonies, WT (JAK2 wild type): 8
[5]; [21]
  number of colonies, Heter (JAK2V617F heterozygous): 17
  number of colonies, Homo (JAK2V617F homozygous): 69
  number of colonies, WT (JAK2 wild type): 51
[5]; [22]
  number of colonies, Heter (JAK2V617F heterozygous): 50
  number of colonies, Homo (JAK2V617F homozygous): 67
  number of colonies, WT (JAK2 wild type): 34
[5]; [23]
  number of colonies, Heter (JAK2V617F heterozygous): 0
  number of colonies, Homo (JAK2V617F homozygous): 109
  number of colonies, WT (JAK2 wild type): 49
[5]; [24]
  number of colonies, Heter (JAK2V617F heterozygous): 13
  number of colonies, Homo (JAK2V617F homozygous): 73
  number of colonies, WT (JAK2 wild type): 13
[5]; [25]
  number of colonies, Heter (JAK2V617F heterozygous): 0
  number of colonies, Homo (JAK2V617F homozygous): 70
  number of colonies, WT (JAK2 wild type): 53
[5]; MF3 CD34+ cells, ladarixin 20 μM, no IL-8
  number of colonies, Heter (JAK2V617F heterozygous): 28
